This experiment deals with human CB1 (cannabinoid receptor 1) (Homo sapiens, UniProt P21554). The experiment in a line: CB1 receptor inhibition effect: calcium ion influx assay (Fluo-4 NW) in Chem-1 cells after 1 μM R-(+)-WIN55212-2. The experiment is classed as cell-based. Conditions: calcium ion influx in Chem-1 cells expressing human CB1, 1 μM R-(+)-WIN55212-2. As to the method: When cells in which the cannabinoid receptor 1 (CB1) is stably expressed are treated with a CB1 receptor agonist, the CB1 receptor is activated and influx of calcium ions into the cells increases. CB1 receptor inhibition effect of a test compound can be evaluated by measuring the degree of calcium influx inhibition after treating with the test compound.
Chain of human CB1 (cannabinoid receptor 1) (P21554 whole entry): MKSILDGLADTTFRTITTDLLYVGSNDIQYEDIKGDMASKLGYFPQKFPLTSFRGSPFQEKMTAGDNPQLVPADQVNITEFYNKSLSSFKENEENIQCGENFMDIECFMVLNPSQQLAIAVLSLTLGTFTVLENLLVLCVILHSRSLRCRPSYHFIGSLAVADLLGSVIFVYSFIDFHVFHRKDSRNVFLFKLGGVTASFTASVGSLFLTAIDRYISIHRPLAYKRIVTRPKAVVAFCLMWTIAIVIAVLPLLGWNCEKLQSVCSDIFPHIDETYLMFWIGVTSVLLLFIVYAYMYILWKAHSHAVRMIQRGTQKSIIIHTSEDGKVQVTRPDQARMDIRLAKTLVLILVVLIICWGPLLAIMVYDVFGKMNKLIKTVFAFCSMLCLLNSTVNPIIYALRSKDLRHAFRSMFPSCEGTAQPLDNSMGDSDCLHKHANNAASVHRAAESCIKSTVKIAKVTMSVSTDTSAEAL
First, Chem-1 cells (Chemicon International, #HTS019C) in which human CB1 cDNA is expressed stably were seeded onto a 96-well cell culture plate at a density of ˜50,000 cells/well and incubated overnight in a 5% CO2 incubator at 37° C. The next day, the culture medium was discarded and the cells were cautiously washed once using an assay buffer (HBSS containing 20 mM HEPES and 2.5 mM probenecid) with 200 μL/well. Calcium ion influx was measured using an assay kit (Fluo-4 NW calcium assay kit: Molecular Probes™, #F36206) according to the manufacturer's instructions. The compounds of Examples of desired concentration to be measured were comprised to 0.5% DMSO. For control, only 0.5% DMSO was used without the compounds of Examples. Reaction time was 10 minutes. After treating the Chem-1 cells stably expressing the CB1 receptor with 1 μM R-(+)-WIN55212-2 (Sigma, #W102), a CB1 receptor agonist, calcium ion (Ca^2+) flux induced thereby was measured for 80 seconds using Flex Station 3 (Molecular Device, USA).
The difference in calcium ion concentration of the cells treated with the compounds of Examples or those treated with 1 μM R-(+)-WIN55212-2 was obtained from the difference of the maximum and minimum values during the 80 seconds. Then, % inhibition of the compounds for the CB1 receptor was calculated using the following equation. % inhibition={1−(ΔRFUcompound−ΔRFUBlank)/(ΔRFUControl−ΔRFUBlank)}×100 [Equation]
ΔRFU: maximum relative fluorescence units−minimum relative fluorescence units
ΔRFUCompound: difference in maximum and minimum RFUs in the well where the compounds of Examples dissolved in DMSO to a final concentration of 0.5% and 1 μM R-(+)-WIN55212-2 dissolved in DMSO to a final concentration of 0.5% were added
ΔRFUBlank: difference in maximum and minimum RFUs in the well to which only 1% DMSO was added
ΔRFUControl: difference in maximum and minimum RFUs in the well where 0.5% DMSO and 1 μM R-(+)-WIN55212-2 dissolved in DMSO to a final concentration of 0.5% were added
In the case of `Cc1nn2c(-c3cccc(Cl)c3)cc(N3CCC[C@H]3CO)nc2c1-c1ccc(Cl)cc1` [Example 2, (S)-(1-(3-(4-chlorophenyl)-7-(3-chlorophenyl)-2-methylpyrazolo[1,5-a]pyrimidin-5-yl)pyrrolidin-2-yl)methanol], the IC50 amounted to 0.1 µM.
In the case of `Cc1nn2c(-c3cccc(F)c3)cc(N3CCC[C@H]3CO)nc2c1-c1ccc(Cl)cc1` [Example 3] it was 0.093 µM.
In the case of `Cc1nn2c(-c3ccccc3F)cc(N3CCC[C@H]3CO)nc2c1-c1ccc(Cl)cc1` [Example 4] it was 0.36 µM.
Under `Cc1nn2c(-c3ccccc3)cc(N3CCC[C@H]3CO)nc2c1-c1ccc(Cl)cc1` [Example 5] stands 0.096 µM.
As for `COc1cccc(-c2cc(N3CCC[C@H]3CO)nc3c(-c4ccc(Cl)cc4)c(C)nn23)c1` [Example 6], the IC50 amounted to 0.2 µM.
Under `Cc1nn2c(-c3cccc(C(F)(F)F)c3)cc(N3CCC[C@H]3CO)nc2c1-c1ccc(Cl)cc1` [Example 9] stands 0.12 µM; under `Cc1ccc(-c2cc(N3CCC[C@H]3CO)nc3c(-c4ccc(Cl)cc4)c(C)nn23)cc1` [Example 11], 0.27 µM; under `Cc1cccc(-c2cc(N3CCC[C@H]3CO)nc3c(-c4ccc(Cl)cc4)c(C)nn23)c1` [Example 12], 0.21 µM.
Under `Cc1ccccc1-c1cc(N2CCC[C@H]2CO)nc2c(-c3ccc(Cl)cc3)c(C)nn12` [Example 13] stands 0.3 µM.
Under `CCc1cccc(-c2cc(N3CCC[C@H]3CO)nc3c(-c4ccc(Cl)cc4)c(C)nn23)c1` [Example 14] stands 0.09 µM; under `Cc1nn2c(-c3ccc(Cl)cc3)cc(N3CCC[C@H]3CO)nc2c1-c1ccc(Cl)cc1` [Example 15], 0.35 µM; under `Cc1nn2c(-c3ccc(F)c(F)c3)cc(N3CCC[C@H]3CO)nc2c1-c1ccc(Cl)cc1` [Example 21], 0.051 µM.
On to `Cc1nn2c(-c3ccc(F)cc3F)cc(N3CCC[C@H]3CO)nc2c1-c1ccc(Cl)cc1` [Example 22], for which the IC50 came out at 0.11 µM.
In the case of `COc1cccc(-c2cc(N3CCC[C@H]3CO)nc3c(-c4ccc(C)cc4)c(C)nn23)c1` [Example 25, (S)-(1-(3-(4-methylphenyl)-7-(3-methoxyphenyl)-2-methylpyrazolo[1,5-a]pyrimidin-5-yl)pyrrolidin-2-yl)methanol] it was 0.039 µM.
In the case of `Cc1ccc(-c2c(C)nn3c(-c4ccc(F)c(F)c4)cc(N4CCC[C@H]4CO)nc23)cc1` [Example 26, (S)-(1-(3-(4-methylphenyl)-7-(3,4-difluorophenyl)-2-methylpyrazolo[1,5-a]pyrimidin-5-yl)pyrrolidin-2-yl)methanol] it was 0.053 µM.
Turning to `COc1ccc(-c2cc(N3CCC[C@H]3CO)nc3c(-c4ccc(C)cc4)c(C)nn23)cc1` [Example 27], the IC50 was found to be 0.24 µM.
In the case of `Cc1ccc(-c2c(C)nn3c(-c4ccccc4)cc(N4CCC[C@H]4CO)nc23)cc1` [Example 28], the IC50 is 0.12 µM.
On to `Cc1ccc(-c2c(C)nn3c(-c4ccc(C)cc4)cc(N4CCC[C@H]4CO)nc23)cc1` [Example 30], for which the IC50 was found to be 0.16 µM.
In the case of `CCc1cccc(-c2cc(N3CCC[C@H]3CO)nc3c(-c4ccc(C)cc4)c(C)nn23)c1` [Example 31] it was 0.13 µM; in that of `Cc1ccc(-c2c(C)nn3c(-c4ccc(Cl)cc4)cc(N4CCC[C@H]4CO)nc23)cc1` [Example 32], 0.14 µM; in that of `Cc1ccc(-c2c(C)nn3c(-c4ccccc4F)cc(N4CCC[C@H]4CO)nc23)cc1` [Example 33], 0.082 µM.
Consider `Cc1ccc(-c2c(C)nn3c(-c4ccc(F)cc4F)cc(N4CCC[C@H]4CO)nc23)cc1` [Example 34], for which the IC50 came out at 0.22 µM.
Take `Cc1ccc(-c2c(C)nn3c(-c4cc(F)cc(F)c4)cc(N4CCC[C@H]4CO)nc23)cc1` [Example 35]: the IC50 was 0.41 µM.
With `Cc1ccc(-c2c(C)nn3c(-c4ccc(F)c(Cl)c4)cc(N4CCC[C@H]4CO)nc23)cc1` [Example 36], the IC50 is 0.1 µM.
For `COc1ccc(-c2c(C)nn3c(-c4ccccc4)cc(N4CCC[C@H]4CO)nc23)cc1` [Example 37, (S)-(1-(3-(4-methoxyphenyl)-7-phenyl-2-methylpyrazolo[1,5-a]pyrimidin-5-yl)pyrrolidin-2-yl)methanol], the IC50 came out at 0.14 µM.
Under `COc1ccc(-c2c(C)nn3c(-c4ccc(F)c(F)c4)cc(N4CCC[C@H]4CO)nc23)cc1` [Example 38, (S)-{1-[7-(3,4-difluorophenyl)-3-(4-methoxyphenyl)-2-methylpyrazolo[1,5-a]pyrimidin-5-yl)pyrrolidin-2-yl)methanol] stands 0.1 µM; under `COc1ccc(-c2c(C)nn3c(-c4ccccc4F)cc(N4CCC[C@H]4CO)nc23)cc1` [Example 39], 0.25 µM; under `COc1ccc(-c2c(C)nn3c(-c4ccc(OC)cc4)cc(N4CCC[C@H]4CO)nc23)cc1` [Example 40], 0.35 µM.
Take `COc1ccc(-c2c(C)nn3c(-c4cccc(OC)c4)cc(N4CCC[C@H]4CO)nc23)cc1` [Example 41]: the IC50 turned out to be 0.26 µM.
Turning to `COc1ccc(-c2c(C)nn3c(-c4ccc(C)cc4)cc(N4CCC[C@H]4CO)nc23)cc1` [Example 42], the IC50 is 0.35 µM.
Under `CCc1cccc(-c2cc(N3CCC[C@H]3CO)nc3c(-c4ccc(OC)cc4)c(C)nn23)c1` [Example 43] stands 0.21 µM; under `COc1ccc(-c2c(C)nn3c(-c4ccc(Cl)cc4)cc(N4CCC[C@H]4CO)nc23)cc1` [Example 44], 0.16 µM.
Under `COc1ccc(-c2c(C)nn3c(-c4cc(F)cc(F)c4)cc(N4CCC[C@H]4CO)nc23)cc1` [Example 45] stands 0.12 µM.
In the case of `COc1ccc(-c2c(C)nn3c(-c4ccc(F)c(Cl)c4)cc(N4CCC[C@H]4CO)nc23)cc1` [Example 46] it was 0.19 µM; in that of `CCOc1ccc(-c2c(C)nn3c(-c4ccccc4)cc(N4CCC[C@H]4CO)nc23)cc1` [Example 47, (S)-(1-(3-(4-ethoxyphenyl)-7-phenyl-2-methylpyrazolo[1,5-a]pyrimidin-5-yl)pyrrolidin-2-yl)methanol], 0.13 µM; in that of `CCOc1ccc(-c2c(C)nn3c(-c4ccc(F)c(F)c4)cc(N4CCC[C@H]4CO)nc23)cc1` [Example 48, (S)-{1-[7-(3,4-difluorophenyl)-3-(4-ethoxyphenyl)-2-methylpyrazolo[1,5-a]pyrimidin-5-yl)pyrrolidin-2-yl)methanol], 0.18 µM.
For `CCOc1ccc(-c2c(C)nn3c(-c4cccc(OC)c4)cc(N4CCC[C@H]4CO)nc23)cc1` [Example 51], the IC50 stood at 0.25 µM.
In the case of `CCOc1ccc(-c2c(C)nn3c(-c4ccc(C)cc4)cc(N4CCC[C@H]4CO)nc23)cc1` [Example 53] it was 0.39 µM; in that of `CCOc1ccc(-c2c(C)nn3c(-c4cc(F)cc(F)c4)cc(N4CCC[C@H]4CO)nc23)cc1` [Example 55], 0.2 µM.
In the case of `Cc1nn2c(-c3ccccc3)cc(N3CCC[C@H]3CO)nc2c1-c1ccc2c(c1)OCO2` [Example 56, (S)-(1-(3-(3,4-methylenedioxyphenyl)-7-(phenyl)-2-methylpyrazolo[1,5-a]pyrimidin-5-yl)pyrrolidin-2-yl)methanol] it was 0.09 µM; in that of `Cc1nn2c(-c3ccccc3F)cc(N3CCC[C@H]3CO)nc2c1-c1ccc2c(c1)OCO2` [Example 57], 0.24 µM; in that of `CCc1cccc(-c2cc(N3CCC[C@H]3CO)nc3c(-c4ccc5c(c4)OCO5)c(C)nn23)c1` [Example 60], 0.21 µM.
Regarding `Cc1nn2c(-c3cc(F)cc(F)c3)cc(N3CCC[C@H]3CO)nc2c1-c1ccc2c(c1)OCO2` [Example 62, (S)-(1-(3-(3,4-methylenedioxyphenyl)-7-(3,5-difluorophenyl)-2-methylpyrazolo[1,5-a]pyrimidin-5-yl)pyrrolidin-2-yl)methanol], the IC50 is 0.07 µM.
`Cc1ccc(-c2c(C)nn3c(-c4ccc(F)cc4)cc(N4CCC[C@H]4CO)nc23)cc1` [Example 63, (S)-(1-(3-(4-methylphenyl)-7-(4-fluorophenyl)-2-methylpyrazolo[1,5-a]pyrimidin-5-yl)pyrrolidin-2-yl)methanol]: the IC50 was 0.041 µM.
Under `COc1ccc(-c2c(C)nn3c(-c4ccc(F)cc4)cc(N4CCC[C@H]4CO)nc23)cc1` [Example 64, (S)-(1-(3-(4-methoxyphenyl)-7-(4-fluorophenyl)-2-methylpyrazolo[1,5-a]pyrimidin-5-yl)pyrrolidin-2-yl)methanol] stands 0.17 µM; under `CCOc1ccc(-c2c(C)nn3c(-c4ccc(F)cc4)cc(N4CCC[C@H]4CO)nc23)cc1` [Example 65], 0.1 µM.
In the case of `Cc1nn2c(-c3ccc(F)cc3)cc(N3CCC[C@H]3CO)nc2c1-c1ccc2c(c1)OCO2` [Example 66] it was 0.14 µM.

As usually defined, the IC50 is the point on the concentration scale where inhibition reaches its midpoint.
